According to patent publication US9644019B2, “Compounds for treating cardiac damage after ischaemia/reperfusion” (priority 2010, dated 2017):
No end group written: not given here.

Columns and labels:
EMMPRIN promoter = EMMPRIN promoter luciferase reporter (pEMMPRIN-WT), transient transfection of cardiomyocytes; assay type: cell-based, mouse; conditions: for EMMPRIN promoter transcriptional activity: cardiomyocytes transiently transfected with pEMMPRIN-WT
Procedure: To clone the mouse EMMPRIN promoter, commercial chromosome BAC CH29-603O5 (which contains part of murine chromosome 10), from CHORI (Children's Hospital Oakland Research Institute) was used as a template in PCR reactions with the following oligonucleotides:
The resulting PCR fragment was cloned into the pGL3-Basic vector (Promega) at 5′ position to the luciferase reporter gene (hereinafter referred to as pEMMPRIN-WT).
The transient DNA transfection experiments were carried out by means of using the LIPOFECTAMINE (catatonic-lipid transfection reagent) 2000 reagent as previously described by the manufacturer. The luciferase content in the transfected cells was measured as previously described [Zaragoza C et al. Molecular pharmacology 2002; 62:927-935]. In summary, the cells were transiently transfected with 1 microgram of DNA and 10 μl of LIPOFECTAMINE (catatonic-lipid transfection reagent) 2000 in OPTIMEM culture medium (a modification of Eagle's Minimum Essential Media, buffered with HEPES and sodium bicarbonate, and supplemented with hypoxanthine, thymidine, sodium pyruvate, L-glutamine, trace elements, and growth factors) for 4 hours, after which time they were washed and incubated with fresh culture medium (MEM/10% FCS) for 16 hours. Furthermore, as a control, the cells were co-transfected with a plasmid containing the constitutively active promoter of cytomegalovirus fused with the R-Luciferase gene (Renilla), used as a control. Each sample was therefore evaluated for the content of both P-(firefly) and R-luciferase. […] of the gene product of the reporter gene of the co-transfected control plasmid. The results were normalized for R-Luciferase content.
To analyze in depth the repressive effect of NO on the EMMPRIN transcription, the first 1000 bps of the regulatory region of the EMMPRIN gene, fused to the luciferase reporter gene (pEMMPRIN-WT), were cloned.

iNOS = target: T1, iNOS (Mus musculus, UniProt P29477); test: Coronary ischemia/reperfusion with pharmacological iNOS inhibition in iNOS wild-type mice; assay type: in vivo
T1 construct: tissue The Jackson Laboratories (mice); host or cells: living wild-type mice; heart after coronary ischemia/reperfusion
T1 sequence (P29477 1-1144): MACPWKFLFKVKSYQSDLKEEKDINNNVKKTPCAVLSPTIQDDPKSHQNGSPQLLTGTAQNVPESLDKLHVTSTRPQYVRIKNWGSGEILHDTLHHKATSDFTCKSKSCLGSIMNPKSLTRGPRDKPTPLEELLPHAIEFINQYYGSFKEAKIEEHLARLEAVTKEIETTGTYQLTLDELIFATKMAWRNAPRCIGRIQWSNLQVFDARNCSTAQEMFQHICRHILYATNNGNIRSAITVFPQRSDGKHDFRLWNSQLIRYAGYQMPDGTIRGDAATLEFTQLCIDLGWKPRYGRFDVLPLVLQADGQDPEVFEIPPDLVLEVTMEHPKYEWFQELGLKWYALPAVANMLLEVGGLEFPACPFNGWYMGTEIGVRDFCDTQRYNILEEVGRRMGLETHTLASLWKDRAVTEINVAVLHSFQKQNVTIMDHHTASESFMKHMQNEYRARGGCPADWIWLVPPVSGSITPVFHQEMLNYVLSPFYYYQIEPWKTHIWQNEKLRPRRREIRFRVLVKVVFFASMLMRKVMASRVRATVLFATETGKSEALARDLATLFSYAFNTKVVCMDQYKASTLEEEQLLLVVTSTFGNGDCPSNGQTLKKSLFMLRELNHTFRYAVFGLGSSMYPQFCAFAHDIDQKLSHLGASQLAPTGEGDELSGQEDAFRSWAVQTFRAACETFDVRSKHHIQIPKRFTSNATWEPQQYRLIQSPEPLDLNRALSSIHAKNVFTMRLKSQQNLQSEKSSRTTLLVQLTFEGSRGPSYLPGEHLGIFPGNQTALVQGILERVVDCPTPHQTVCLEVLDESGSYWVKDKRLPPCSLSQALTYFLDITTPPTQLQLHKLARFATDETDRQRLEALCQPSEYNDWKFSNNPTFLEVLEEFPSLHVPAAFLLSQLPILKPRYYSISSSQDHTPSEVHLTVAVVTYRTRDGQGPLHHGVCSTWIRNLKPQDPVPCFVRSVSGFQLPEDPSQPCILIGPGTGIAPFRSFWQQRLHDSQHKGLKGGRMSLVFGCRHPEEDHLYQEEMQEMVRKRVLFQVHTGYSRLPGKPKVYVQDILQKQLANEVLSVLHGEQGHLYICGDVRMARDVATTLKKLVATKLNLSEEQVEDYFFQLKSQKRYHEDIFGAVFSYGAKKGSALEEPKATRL
Procedure: Ischemia was induced by means of the coronary artery ligation in the manner detailed below: twelve week old mice were anesthetized intraperitoneally by means of using ketamine/xylazine (100 mg/kg/10 mg/kg, respectively), intubated with a 1 mm steel tube, and ventilated (2 ml, 80 pulses/minute). After this process, the chest of the mice was opened between the second and third ribs, being kept open by means of the aid of a retractor for mice. The pericardium was then opened to subsequently temporarily ligate the left coronary artery in a region close to its branch by means of using a 6-0 silk suture and for a period of 30 minutes. Evidence of coronary occlusion was clearly shown by means of the discoloration of the left ventricle after the arterial ligation. After 30 minutes, the ligation is removed, the chest closed and the skin sutured. Additionally, a group of control animals (sham) were included in the assays, in which the same method was carried out with the exception of the coronary artery occlusion. To inhibit iNOS in vivo, the iNOS wild-type mice were injected in the tail vein with 2 mg/kg/day of the pharmacological inhibitor of iNOS, 1400W, 30 minutes before ischemia and 24 hours after ischemia/reperfusion. […] To evaluate the effect of anti-EMMPRIN on the ischemic process/reperfusion, the antibodies were administered intravenously for four days before the surgical procedure, after which time the infarct size, cardiac function and EMMPRIN and MMP-9 expression were evaluated.
The heart of the animals was included in paraffin to subsequently obtain sections 4 microns thick as previously described [Tarin et al. mentioned ad supra]. The morphology of the heart was viewed by means of staining with hematoxylin and eosin, whereas collagen deposition was monitored by means of Masson's trichrome staining. […]
Additionally, nitration was detected by means of using anti-3-Nitrotyrosine in sections isolated from those same animals, confirming that the exogenously supplied NO was present in the hearts of the animals treated during the time of the experiment (FIG. 2D, right).

EMMPRIN mRNA [1] = test: EMMPRIN mRNA, quantitative real-time RT-PCR in HL1 cardiomyocytes; assay type: cell-based, mouse; conditions: cardiomyocytes in culture, 100 μM DETA-NO
Procedure: (§1) (A) Quantitative real-time RT-PCR showing EMMPRIN expression in the hearts of wild-type and iNOS knockout animals after ischemia/reperfusion (n=3 in triplicate, mean±SD *p<0.05 vs iNOS null−). (B) Quantitative real-time RT-PCR showing EMMPRIN expression in HL1 cardiomyocytes in response to the exogenous administration of 100 μM DETA-NO (n=3, mean±SD *p<0.05). (C) Quantitative real-time RT-PCR showing EMMPRIN expression in RAW […] macrophages in culture in response to the exogenous administration of 100 μM of DETA-NO, endogenous NO production (50 μM LPS), or iNOS inhibition by means of adding 100 μM 1400W (n=3 mean±SD). (D) Stability assay of EMMPRIN mRNA in HL-1 cardiomyocytes (left) and in RAW […] macrophages (right) (n=3, mean±SD *p<0.05).
(§2) The HL1 cardiomyocyte cell line was donated by Dr. Antonio Bernad and cultured as described [Ruiz-Meana M et al. Cardiovascular research 2006; 71:715-724]. The RAW […] murine macrophage line was cultured as described [Tarin C et al. Arteriosclerosis, thrombosis, and vascular biology 2009; 29:27-32].

EMMPRIN mRNA [2] = test: EMMPRIN mRNA, quantitative real-time RT-PCR in RAW macrophages; assay type: cell-based, murine; conditions: RAW macrophage cell line, 100 μM DETA-NO
Procedure: as §1, §2

EMMPRIN mRNA [3] = test: EMMPRIN mRNA stability assay (actinomycin D) in HL-1 cardiomyocytes; assay type: cell-based, mouse; conditions: cardiomyocyte cell line, over time
Procedure: (§3) For this assay, cells were incubated in wells […] in diameter and incubated in the presence of 10 μM of actinomycin D for 16 hours, after which time the cells were treated with diethylenetriamine-NO (DETA-NO) at different times. The RNA of the different experiment times was isolated and both for EMMPRIN and for GAPDH (as a control), their mRNAs were evaluated by means of quantitative real-time RT-PCR.

EMMPRIN mRNA [4] = test: EMMPRIN mRNA stability assay (actinomycin D) in RAW macrophages; assay type: cell-based, murine
Procedure: as §3

[5] = system: MAEC cells (mouse aortic endothelial cells); test: Internalization of AP-9 nanoparticles by MAEC cells and co-localization with EMMPRIN; assay type: cell-based; conditions: for internalization into MAEC cells: overnight incubation
Procedure: The MAEC cells were incubated overnight with the AP-9 nanoparticles (NP-AP-9) (20 μg/ml) (right panel) or with non-loaded nanoparticles (NP-NT) (left panel). The MAEC cells were fixed, and EMMPRIN expression was detected using an anti-EMMPRIN antibody. Co-localization between the NP-AP-9 signal and the EMMPRIN signal was found in MAEC cells treated with NP-AP-9 (right panel), but this co-localization was not found in the control nanoparticles. The cores were stained with DAPI.
The MAEC cells were cultured in a black 96-well plate and incubated overnight with different concentrations of nanoparticles loaded with AP-9 (NP-AP9) or nanoparticles without AP-9 (NP-NT). Fluorescence was measured using an IVIS imaging system. The graph on the right represents the intensity of the fluorescence signal of the image on the left.
Nanoparticles containing AP-9 have therapeutic value, because EMMPRIN is inhibited and tissue damage due to proteolytic enzyme activation is reduced.

For `NCCCNCCCCN(CCCN)/[N+]([O-])=N/O` [Spermine-NONOate], the “EMMPRIN promoter transcriptional activity” value (EMMPRIN promoter) was “results similar to those generated with DETA-NO”.
In the case of `CC(=O)NC(C(=O)O)C(C)(C)SN=O` (racemic) [SNAP, S-Nitroso-N-acetyl-D,L-penicillamine], the “EMMPRIN promoter transcriptional activity” value (EMMPRIN promoter) is reported as “results similar to those generated with DETA-NO”.
For `Nc1nc2c(nc(Br)n2[C@@H]2O[C@@H]3COP(=O)(O)O[C@H]3[C@H]2O)c(=O)[nH]1` [8-Br-cGMP], the “EMMPRIN promoter transcriptional activity” value (EMMPRIN promoter) was “same effect as the NO donor”.
`CC(=N)NCc1cccc(CN)c1` [1400W] was tested, and the infarct size (iNOS; 1400W 2 mg/kg/day tail vein, vs control mice) was “significantly increase”, the MMP-9 levels (iNOS; 1400W 2 mg/kg/day, WT 1400WC vs WT 1400W) was “increase” and the EMMPRIN levels (iNOS; 1400W 2 mg/kg/day, vs control mice) was “increase”.
`NCCN(CCN)/[N+]([O-])=N/O` [DETA-NO, diethylenetriamine-NO] was tested, and the “EMMPRIN mRNA levels” value (EMMPRIN mRNA [1]) was “significantly reduced”, the EMMPRIN gene expression (EMMPRIN mRNA [2]) was “did not induce a significant effect” and the “EMMPRIN mRNA stability” value (EMMPRIN mRNA [3]) was “significant reduction”. For the same compound, the “EMMPRIN mRNA stability” value (EMMPRIN mRNA [4]) was “no effect whatsoever”.
In the case of “NP-AP-9: nanoparticles with iron oxide core, single lipid-PEG layer with fluorochrome, and AP-9 peptide bound to the surface (YKLPGHHHHYRP; also: bound to surface of iron oxide nanoparticles with lipid-PEG layer and fluorochrome, attachment site not given here)”, the “co-localization of nanoparticle signal with EMMPRIN signal” value ([5]; 20 μg/ml overnight) is reported as “Co-localization”, the “dose dependence of internalization (fluorescence signal)” value ([5]; 96-well plate, different concentrations overnight, IVIS imaging) is reported as “dose-dependent manner” and the “internalization into MAEC cells” value [5] is reported as “internalization”. The “internalization into MAEC cells” value ([5]; listed as Nanoparticles containing AP-9) was “could be internalized”.
With `O=c1c2nc(Br)n([C@@H]3O[C@@H]4CO[P@@](O)(=S)O[C@H]4[C@H]3O)c2nc2[nH]c(-c3ccccc3)cn12` [Rp-8-Br-PET-cGMPS] the “EMMPRIN promoter transcriptional activity” value (EMMPRIN promoter) was “significant increase” and the “EMMPRIN promoter activity in combination with NO” value (EMMPRIN promoter; cardiomyocytes, pEMMPRIN-WT, PET + NO (100 μM DETA-NO)) was “partially restoring the negative effect of NO”.
